# Assay results reported in US10945685B2, “System and method for normalizing standardized uptake values in brain positron emission tomography (PET) images” (New York University, priority 2018, dated 2021).
# Columns and labels:
# tau [1] = experiment: AD-NL classification from tau PET: ROC AUC and AD-NL ratio of PBP; assay type: in vivo, human; conditions: temporal lobe
# tau [2] = experiment: Tau PET tracer binding, SUVP peak-alignment method and positive binding percentage (PBP), AD patients and NL subjects; assay type: in vivo, human; conditions: for PBP of SUVP, Basal ganglia / PBP of SUVP, Cerebellar GM / PBP of SUVP, Cerebral GM / PBP of SUVP, Cerebral WM / PBP of SUVP, Frontal cortex / PBP of SUVP, Occipital cortex / PBP of SUVP, Partial cortex / PBP of SUVP, Temporal cortex: SUVP cutoff 1.5; for PBP of SUVP, Basal ganglia / PBP of SUVP, Cerebellar GM / PBP of SUVP, Cerebral GM / PBP of SUVP, Cerebral WM / PBP of SUVP, Frontal cortex / PBP of SUVP, Occipital cortex / PBP of SUVP, Partial cortex / PBP of SUVP, Temporal cortex / mean SUVP in cerebellum GM: mean (SD)
# Description: The set of standardized uptake values (with repetition) for all voxels within brain region r and subject s may be represented as SUV(r,s). Each of the values of SUV(r,s) may be normalized using a SUVP method represented as follows: SUVP(r,s)=(SUV(r,s)−M)/S, where M corresponds to a peak of the number of counts of emissions events recorded across all of the voxels of the PET image data, and S corresponds to a spread of all of the different counts of emissions events recorded across all of the voxels of the PET image data. Each subject's SUV image may be normalized and transferred into a standardized SUVP, using the standardized uptake value peak-alignment (SUVP) method described herein.
# In one particular example, M is the sample mode of rounded SUV(r,s), and S is the standard deviation of SUV(r,s). Furthermore, the peak (M) values, in particular the sample mode of rounded SUV(r,s) may be used as a reference region to normalize raw SUV data using methods similar to SUVR.
# In addition, as shown in step 112, a SUVP method may also be used to analyze regional percentages of positive binding in the PET data. Positive binding may be defined based on a predetermined cutoff value. The predetermined cutoff value may be any suitable value that is well above background signal. In some embodiments, the predetermined cutoff value may be manually set by a user. One important advantage of SUVP is that it standardized range of whole brain SUV into a generally fixed range regardless of tracer or disease condition, allowing universal cutoff for different tracers (e.g., 1.5 for all tracers), while SUVR cutoffs are tracer-dependent and varies across different studies (e.g., 1.5 for THK5315 and 1.2 for AV1451). Additionally, as discussed further below in Example I, when SUVP was calculated by using a standard deviation (SD), 1.5 times a SUVP cutoff value is equivalent to 1.5 times SD, which signifies a statistic meaningful way to distinguish and identify positive voxels. The percentage of positive binding (PBP) may be obtained by:
# Subjects come from two sources. 18 subjects (9 AD patients, and 9 healthy elderly study participants) underwent ^18F-THK5351 PET scans from the memory clinic of Tohoku University Hospital. ^18F-AV-1451 scans were obtained from the ADNI (Alzheimer's Disease Neuroimaging Initiative) database (adni.loni.usc.edu). 32 Subjects (20 NL and 12 AD) with ^18F-AV-1451 were selected from ADNI, that were matched to the age and MMSE in participants of the THK5351 group.
# PET imaging was performed using an Eminence STARGATE PET scanner (Shimadzu, Kyoto, Japan). After intravenous injection of ^18F-THK5351 (185 MBq), dynamic PET images were obtained for 60 min. acquisition matrix is 128×128×79 and voxels size is 2×2×2.6 mm. ^18F-THK5351 was synthesized. MRI was performed on all participants. T1 weighted MR images were obtained using a SIGNA 1.5-Tesla machine (General Electric, Milwaukee, Wis.). In T1-weighted MRI, a 3D volumetric acquisition of a T1-weighted gradient echo sequence produced a gapless series of thin axial sections by using a vascular TOF SPGR sequence (echo time/repetition time, 2.4/50 ms; flip angle, 45°; acquisition matrix, 256×256; 1 excitation; field of view, 22 cm; slice thickness, 2.0 mm).
# AV-1451 data were downloaded from ADNI with series description “AV1451 Coreg, Avg, Std Img and Vox Siz, Uniform Resolution”. An intravenous injection of 10 mCi ^18F-AV-1451 (370 MBq) is followed by a saline flush. At approximately 75 minutes following injection, a continuous 30-minute brain scan (6 frames of 5-minute duration) was performed after a CT or transmission scan for attenuation correction. PET imaging was performed using GEMINI TF TOF 16 (Philips Medical Systems), with 6 frames; acquisition matrix 128×128×90; pixel spacing 2×2 mm; slice thickness 2 mm. […]
Compound,"AD-NL ratio (R), SUVR Mean (tau [1])","PBP of SUVP, Basal ganglia (tau [2]; AD patients)","PBP of SUVP, Cerebellar GM (tau [2]; AD patients)","PBP of SUVP, Cerebral GM (tau [2]; AD patients)","PBP of SUVP, Cerebral WM (tau [2]; AD patients)","PBP of SUVP, Frontal cortex (tau [2]; AD patients)","PBP of SUVP, Occipital cortex (tau [2]; AD patients)","PBP of SUVP, Partial cortex (tau [2]; AD patients)","PBP of SUVP, Temporal cortex (tau [2]; AD patients)",mean SUVP in cerebellum GM (tau [2]; AD patients),"PBP of SUVP, Basal ganglia (tau [2]; NL subjects)","PBP of SUVP, Cerebellar GM (tau [2]; NL subjects)","PBP of SUVP, Cerebral GM (tau [2]; NL subjects)","PBP of SUVP, Cerebral WM (tau [2]; NL subjects)","PBP of SUVP, Frontal cortex (tau [2]; NL subjects)","PBP of SUVP, Occipital cortex (tau [2]; NL subjects)","PBP of SUVP, Partial cortex (tau [2]; NL subjects)","PBP of SUVP, Temporal cortex (tau [2]; NL subjects)",mean SUVP in cerebellum GM (tau [2]; NL subjects),further results
CNc1ccc(-c2ccc3cc(OC[C@H](O)CF)ccc3n2)cn1 [THK5351],1.18,61.93(7.25),.07(.10),5.56(1.47),8.70(3.24),1.25(0.86)^,1.73(2.79)^,2.16(3.33)^+,17.94(5.15)*^+,−1.24(0.24),81.24(8.55)^++,.10(.14),3.81(2.19),7.06(1.55),2.37(1.25)^+,0.05(0.09),0.17(0.21),6.93(4.78),−1.21(0.28),decrease of cerebellum GM SUVP in AD comparing to NL (tau [2]; AD vs NL): 2.5%
[18F]c1ccc(-c2ccc3c(c2)[nH]c2ccncc23)cn1 [AV-1451],1.17,18.55(12.28)^,.90(1.46),9.4(10.83)^+,7.86(7.44)^+,5.32(7.70)^,5.59(8.23)^+,10.2(15.2)^+,20.72(20.48)*^+,−0.73(0.43),28.14(11.42),.83(1.45),1.85(3.24),2.65(3.64),0.78(1.43),0.54(1.58),0.95(3.21),5.44(11.10),−1.00(0.45),increase of cerebellar GM SUVP in AD comparing to NL (tau [2]; AD vs NL): 37%
